Laboratory results: patent publication US20220042962A1, “METHOD FOR […] SITE-[…] WATER QUALITY […] OF RIVER BASIN” (DALIAN UNIVERSITY OF TECHNOLOGY, priority 2020, published 2022)

Tested on: aquatic species in Liaohe River Basin
Test: Derivation of site-specific water quality criterion (species sensitivity distribution and toxicity sorting)

## ammonia nitrogen
Liaohe River Basin, four most sensitive resident sensitive and endemic species
  water quality criterion value derived by the toxicity sorting method: 15.91 mg/L
Liaohe River Basin, safety coefficient 2
  water quality criterion value derived by the species sensitivity method: 13.47 mg/L
Liaohe River Basin, weights 0.3 and 0.7, pH=7.0 and temperature=20° C.
  water quality criterion value (validation value): 15.18 mg/L
Logistic SSD model, before division by safety coefficient 2
  X value at Y=0.05 transformed to a base-10 exponent: 26.93 mg/L
Logistic model, cumulative probability Y=0.05, pH=7.0, temperature=20° C.
  X (log10 toxicity value) at Y=0.05 on the logistic SSD fitting curve: 1.4302
